Assay results taken from ChEMBL document CHEMBL5291721, “A preclinical secondary pharmacology resource illuminates target-adverse drug reaction associations of marketed drugs” (Nat Commun, 2023).

Columns and labels:
[1] = molecular target: T1, Equilibrative nucleoside transporter 1 (Homo sapiens, UniProt Q99808)
T1 sequence (Q99808 whole entry): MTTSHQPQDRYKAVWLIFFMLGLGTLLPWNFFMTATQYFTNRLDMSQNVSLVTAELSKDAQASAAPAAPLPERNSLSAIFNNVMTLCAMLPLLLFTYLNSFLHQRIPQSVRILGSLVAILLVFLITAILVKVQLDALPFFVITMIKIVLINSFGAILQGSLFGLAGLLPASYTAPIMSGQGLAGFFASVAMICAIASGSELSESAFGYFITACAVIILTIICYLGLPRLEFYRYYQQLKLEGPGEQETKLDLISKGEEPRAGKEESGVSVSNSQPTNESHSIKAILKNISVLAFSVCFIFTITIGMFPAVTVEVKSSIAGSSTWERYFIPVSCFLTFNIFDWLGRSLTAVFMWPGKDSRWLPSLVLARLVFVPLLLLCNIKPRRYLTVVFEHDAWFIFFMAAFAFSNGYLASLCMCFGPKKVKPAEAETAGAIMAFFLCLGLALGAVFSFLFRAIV

[2] = molecular target: T2, Alpha-1A adrenergic receptor (Homo sapiens, UniProt P35348); assay type: functional, cell-based
T2 sequence (P35348 whole entry): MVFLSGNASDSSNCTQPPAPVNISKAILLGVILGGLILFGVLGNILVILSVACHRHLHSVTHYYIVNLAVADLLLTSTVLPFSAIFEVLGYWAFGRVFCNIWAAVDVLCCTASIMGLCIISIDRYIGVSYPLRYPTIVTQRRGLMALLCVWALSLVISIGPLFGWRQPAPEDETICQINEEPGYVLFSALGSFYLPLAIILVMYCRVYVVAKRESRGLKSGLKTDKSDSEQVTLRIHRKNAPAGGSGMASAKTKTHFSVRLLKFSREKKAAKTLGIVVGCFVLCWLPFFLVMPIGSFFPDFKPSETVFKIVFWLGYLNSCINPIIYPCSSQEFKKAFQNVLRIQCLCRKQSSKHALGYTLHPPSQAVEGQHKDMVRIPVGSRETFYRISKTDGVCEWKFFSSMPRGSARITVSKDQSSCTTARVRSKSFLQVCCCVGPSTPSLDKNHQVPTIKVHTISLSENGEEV

[3] = molecular target: T3, Alpha-2A adrenergic receptor (Homo sapiens, UniProt P08913); assay type: functional, cell-based
T3 sequence (P08913 whole entry): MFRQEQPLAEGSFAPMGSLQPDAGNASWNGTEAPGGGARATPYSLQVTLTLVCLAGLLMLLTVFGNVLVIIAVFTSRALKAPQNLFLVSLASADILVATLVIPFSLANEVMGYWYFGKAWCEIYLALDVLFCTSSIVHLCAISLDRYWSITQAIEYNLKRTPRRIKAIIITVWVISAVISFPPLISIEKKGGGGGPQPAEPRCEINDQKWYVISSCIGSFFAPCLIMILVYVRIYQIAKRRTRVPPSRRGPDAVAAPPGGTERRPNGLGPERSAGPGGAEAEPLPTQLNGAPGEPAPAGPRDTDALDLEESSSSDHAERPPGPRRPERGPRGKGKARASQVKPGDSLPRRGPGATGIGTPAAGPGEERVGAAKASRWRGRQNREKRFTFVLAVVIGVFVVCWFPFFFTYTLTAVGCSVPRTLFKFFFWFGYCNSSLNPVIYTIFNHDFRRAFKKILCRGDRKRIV

Vasopressin V2 receptor = Vasopressin V2 receptor (Homo sapiens, UniProt P30518)
D(1A) dopamine receptor = D(1A) dopamine receptor (Homo sapiens, UniProt P21728); assay type: functional, cell-based
Glucocorticoid receptor = molecular target: T4, Glucocorticoid receptor (Homo sapiens, UniProt P04150)
T4 sequence (P04150 whole entry): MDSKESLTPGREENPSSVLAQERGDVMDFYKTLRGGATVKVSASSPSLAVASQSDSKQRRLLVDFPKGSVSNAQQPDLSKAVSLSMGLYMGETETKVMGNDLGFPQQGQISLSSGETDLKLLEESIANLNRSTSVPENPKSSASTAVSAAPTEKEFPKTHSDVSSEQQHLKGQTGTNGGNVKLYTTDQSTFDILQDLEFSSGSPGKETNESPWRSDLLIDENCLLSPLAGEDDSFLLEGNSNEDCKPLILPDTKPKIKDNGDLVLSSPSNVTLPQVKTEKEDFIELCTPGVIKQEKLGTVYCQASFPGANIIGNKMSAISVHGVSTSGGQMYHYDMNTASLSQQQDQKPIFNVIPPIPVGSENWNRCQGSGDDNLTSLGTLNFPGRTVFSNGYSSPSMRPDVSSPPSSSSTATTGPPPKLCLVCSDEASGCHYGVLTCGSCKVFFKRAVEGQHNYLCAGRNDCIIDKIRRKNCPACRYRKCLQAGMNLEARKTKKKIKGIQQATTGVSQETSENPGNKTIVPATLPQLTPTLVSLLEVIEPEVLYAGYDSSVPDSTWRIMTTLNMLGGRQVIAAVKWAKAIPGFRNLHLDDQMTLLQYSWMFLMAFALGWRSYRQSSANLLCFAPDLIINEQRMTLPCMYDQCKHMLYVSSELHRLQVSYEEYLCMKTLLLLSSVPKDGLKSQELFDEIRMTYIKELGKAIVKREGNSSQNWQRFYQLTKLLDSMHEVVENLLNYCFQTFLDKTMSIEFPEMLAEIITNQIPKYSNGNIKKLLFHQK
Further: assay procedure not described here.

Chain of Vasopressin V2 receptor (P30518 whole entry): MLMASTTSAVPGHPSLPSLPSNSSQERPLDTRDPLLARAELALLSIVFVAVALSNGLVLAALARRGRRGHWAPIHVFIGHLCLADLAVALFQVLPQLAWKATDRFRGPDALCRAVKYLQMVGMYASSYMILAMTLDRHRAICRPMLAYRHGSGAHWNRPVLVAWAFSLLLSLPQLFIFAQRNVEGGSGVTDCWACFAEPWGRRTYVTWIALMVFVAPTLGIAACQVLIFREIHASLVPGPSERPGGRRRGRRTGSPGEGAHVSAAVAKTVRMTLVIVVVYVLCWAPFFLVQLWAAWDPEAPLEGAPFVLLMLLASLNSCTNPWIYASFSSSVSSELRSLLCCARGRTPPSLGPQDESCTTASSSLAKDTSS
Chain of D(1A) dopamine receptor (P21728 whole entry): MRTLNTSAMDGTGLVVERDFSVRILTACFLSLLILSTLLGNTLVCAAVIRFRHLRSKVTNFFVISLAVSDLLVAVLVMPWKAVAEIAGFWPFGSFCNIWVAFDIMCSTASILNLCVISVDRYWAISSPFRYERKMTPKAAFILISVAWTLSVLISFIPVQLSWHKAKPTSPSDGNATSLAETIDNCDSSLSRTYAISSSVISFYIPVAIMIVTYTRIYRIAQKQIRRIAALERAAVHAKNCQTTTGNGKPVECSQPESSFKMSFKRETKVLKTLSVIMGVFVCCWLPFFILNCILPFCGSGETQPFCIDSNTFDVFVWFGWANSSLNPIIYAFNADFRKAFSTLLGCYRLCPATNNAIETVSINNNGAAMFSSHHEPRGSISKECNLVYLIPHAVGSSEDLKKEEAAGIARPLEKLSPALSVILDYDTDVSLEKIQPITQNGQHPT

| Structure (SMILES) | AC50 [1] [µM] | AC50 [2] [µM] | AC50 [3] [µM] | AC50 (Vasopressin V2 receptor) [µM] | AC50 (D(1A) dopamine receptor) [µM] | AC50 (Glucocorticoid receptor) [µM] |
| --- | --- | --- | --- | --- | --- | --- |
| O=C(O)COCCN1CCN(C(c2ccccc2)c2ccc(Cl)cc2)CC1 (stereo not given) [CETIRIZINE] | > 30 | > 30 | > 10 | > 30 |  |  |
| O=C(O)c1cccnc1Nc1cccc(C(F)(F)F)c1 [NIFLUMIC ACID] | > 10 |  | > 10 | > 10 | > 10 | > 10 |
| Cc1ccccc1-n1c(CF)nc2ccc(N)cc2c1=O [AFLOQUALONE] | > 30 |  | > 10 | > 30 | > 30 |  |
| OC[C@H]1O[C@@H](n2cnc3c2NC=NC[C@H]3O)C[C@@H]1O [PENTOSTATIN] | > 30 | > 30 | > 30 | > 30 | > 30 | > 30 |
| COc1ccc([C@@H]2CC(=O)c3c(O)cc(O)cc3O2)cc1O [HESPERETIN] | > 10 |  | > 10 | > 10 | > 30 | > 10 |
| CCCN1CC(NS(=O)(=O)N(CC)CC)CC2Cc3c(O)cccc3CC21 (stereo not given) [QUINAGOLIDE] |  | 0.45 | > 30 | > 30 | 0.15 | > 30 |
| COC(=O)C1=C(C)NC(C)=C(C(=O)OCCN2CCN(C(c3ccccc3)c3ccccc3)CC2)C1c1cccc([N+](=O)[O-])c1 (stereo not given) [MANIDIPINE 6300] | > 30 | > 30 | > 30 | > 30 | > 30 | > 30 |
| CN(C)C/C=C/C(=O)Nc1cc2c(Nc3ccc(F)c(Cl)c3)ncnc2cc1O[C@H]1CCOC1 [AFATINIB] | > 30 | > 30 | > 30 | > 30 | > 30 | > 30 |
| CC(C)(Oc1ccc(CCNC(=O)c2ccc(Cl)cc2)cc1)C(=O)O [BEZAFIBRATE] | > 10 | > 30 | > 10 | > 10 | > 10 | > 10 |
| CN[C@@H](C)[C@@H](O)c1ccccc1 [PSEUDOEPHEDRINE] | > 30 |  | > 10 | > 30 | > 10 | > 30 |
| CCOC(=O)c1c(CSc2ccccc2)n(C)c2cc(Br)c(O)c(CN(C)C)c12 [UMIFENOVIR] | > 30 | > 30 | > 30 | > 30 | > 30 | > 30 |
| O=C1c2ccccc2C(=O)C1c1ccccc1 [PHENINDIONE] | > 10 | > 30 | > 10 | > 10 | > 10 | > 10 |
| C[C@]12CCC(=O)C[C@@H]1CC[C@@H]1[C@@H]2CC[C@]2(C)[C@@H](O)CC[C@@H]12 [STANOLONE] | > 30 | > 30 | > 30 | > 30 | > 30 |  |
| C[C@]12C=CC(=O)C=C1CC[C@@H]1[C@@H]2CC[C@]2(C)OC(=O)CC[C@@H]12 [TESTOLACTONE] | > 10 | > 30 | > 30 | > 10 | > 10 |  |
| CC(Cc1cccc(C(F)(F)F)c1)NCCOC(=O)c1ccccc1 (stereo not given) [BENFLUOREX] |  | > 30 | > 30 | > 30 | > 30 | > 30 |
| O=C1c2cccc3c2[C@H](CCC3)CN1[C@@H]1CN2CCC1CC2 [PALONOSETRON] | > 30 | > 30 | > 30 | > 30 | > 30 | > 30 |
| Cc1ccccc1N1C(=O)c2cc(S(N)(=O)=O)c(Cl)cc2NC1C (stereo not given) [METOLAZONE] | > 10 |  | > 10 | > 10 | > 10 | > 10 |
| C[N+](C)(C)CCOP(=O)([O-])OC[C@H](O)CO | > 30 | > 30 | > 30 | > 30 | > 30 | > 30 |
| CCOC(=O)c1ccc(N)cc1 [BENZOCAINE] | > 10 |  | > 10 | > 10 | > 10 | > 10 |
| C/C=C(/C(=C/C)c1ccc(O)cc1)c1ccc(O)cc1 [DIENESTROL] | > 30 |  | > 10 | > 10 | > 10 | 0.736 |
| CN(C)CCCN1c2ccccc2CCc2ccccc21 [IMIPRAMINE] | > 30 | > 30 | > 10 | > 30 | > 10 | > 30 |
| CN(Cc1cnc2nc(N)nc(N)c2n1)c1ccc(C(=O)N[C@@H](CCC(=O)O)C(=O)O)cc1 [METHOTREXATE] | > 30 | > 30 | > 10 | > 30 | > 10 |  |
| Cc1cccc(C)c1NC(=O)CC12CCCN1CCC2 [PILSICAINIDE] | > 30 | > 30 | > 30 | > 30 | > 30 | > 30 |
| CCOC(=O)C1=C(C)NC(C)=C(C(=O)OCC)C1c1ccccc1/C=C/C(=O)OC(C)(C)C [LACIDIPINE] | > 30 | > 30 | > 30 | > 30 | > 30 | > 30 |
| CCC[C@@H]1C[C@@H](C(=O)N[C@@H]([C@H]2O[C@H](SC)[C@H](O)[C@@H](O)[C@H]2O)[C@@H](C)O)N(C)C1 [LINCOMYCIN] | > 10 | > 30 | > 30 | > 10 | > 10 | > 10 |
| CC(C)c1cccc(C(C)C)c1O [PROPOFOL] | > 30 | > 30 | > 30 |  | > 30 |  |
| C[N+]1(C)CCC(=C(c2ccccc2)c2ccccc2)CC1 | > 10 |  | > 10 | > 30 | > 10 | > 10 |
| CCC1(c2ccc(N)cc2)CCC(=O)NC1=O (stereo not given) [AMINOGLUTETHIMIDE] | > 30 | > 30 | > 30 | > 30 | > 30 | > 30 |
| C=C1c2cccc(O)c2C(=O)C2=C(O)[C@]3(O)C(=O)C(C(N)=O)=C(O)[C@@H](N(C)C)[C@@H]3[C@@H](O)[C@H]12 [METHACYCLINE] | > 10 |  | > 10 | > 30 | > 10 | > 30 |
| CN(C)Cc1nnc2n1-c1ccc(Cl)cc1C(c1ccccc1)=NC2 [ADINAZOLAM] | > 10 |  | > 10 | > 10 | > 10 | > 10 |
